Results: ChEMBL document CHEMBL1134740, “3,28-Di-O-(dimethylsuccinyl)-betulin isomers as anti-HIV agents” (Bioorg Med Chem Lett, 2001)

Key:
[1] = Therapeutic Index (IC50/EC50) of the compound
[2] = test system: H9; assay: Evaluated for the anti-HIV activity against HIV-1 replication in H9 lymphocyte cells; type: functional, cell-based; conditions: Homo sapiens
[3] = test system: H9; assay: Evaluated for the anti-HIV activity against HIV-1 replication in mock-infected H9 cells; type: functional, cell-based; conditions: Homo sapiens
[4] = Therapeutic Index (IC50/EC50) of the compound; Toxic at all concentrations
[5] = test system: H9; assay: Evaluated for the anti-HIV activity against HIV-1 replication in H9 lymphocyte cells; Toxic at all concentrations; type: functional, cell-based; conditions: Homo sapiens

Row | SMILES | EC50 [2] | selectivity ratio [1] | IC50 [3] | Ratio [4] | Activity [5]
1 | C=C(C)[C@@H]1CC[C@]2(COC(=O)CC(C)(C)C(=O)O)CC[C@]3(C)[C@H](CC[C@@H]4[C@@]5(C)CC[C@H](O)C(C)(C)[C@@H]5CC[C@]43C)[C@@H]12 | < 180 nM | > 207 | 37.4 µM | – | –
2 | C=C(C)[C@@H]1CC[C@]2(COC(=O)C(C)(C)CC(=O)O)CC[C@]3(C)[C@H](CC[C@@H]4[C@@]5(C)CC[C@H](OC(=O)C(C)(C)CC(=O)O)C(C)(C)[C@@H]5CC[C@]43C)[C@@H]12 | – | – | – | Toxic at all concentrations | Toxic at all concentrations
3 | C=C(C)[C@@H]1CC[C@]2(COC(=O)CC(C)(C)CC(=O)O)CC[C@]3(C)[C@H](CC[C@@H]4[C@@]5(C)CC[C@H](OC(=O)CC(C)(C)CC(=O)O)C(C)(C)[C@@H]5CC[C@]43C)[C@@H]12 | – | 21500 | – | – | –
4 | C=C(C)[C@@H]1CC[C@]2(C(=O)O)CC[C@]3(C)[C@H](CC[C@@H]4[C@@]5(C)CC[C@H](OC(=O)COCC(=O)O)C(C)(C)[C@@H]5CC[C@]43C)[C@@H]12 | – | 1170 | – | – | –

Second part, led by results:

Row | EC50 [2] | SMILES | selectivity ratio [1] | IC50 [3] | Ratio [4] | Activity [5]
5 | < 0.35 nM | C=C(C)[C@@H]1CC[C@]2(C(=O)O)CC[C@]3(C)[C@H](CC[C@@H]4[C@@]5(C)CC[C@H](OC(=O)CC(C)(C)C(=O)O)C(C)(C)[C@@H]5CC[C@]43C)[C@@H]12 [BEVIRIMAT] | > 20000 | – | – | –
6 | 0.87 nM | C=C(C)[C@@H]1CC[C@]2(COC(=O)C(C)(C)CC(=O)O)CC[C@]3(C)[C@H](CC[C@@H]4[C@@]5(C)CC[C@H](OC(=O)CC(C)(C)C(=O)O)C(C)(C)[C@@H]5CC[C@]43C)[C@@H]12 | 42400 | 36.9 µM | – | –
7 | 180 nM | C=C(C)[C@@H]1CC[C@]2(COC(=O)C(C)(C)CC(=O)O)CC[C@]3(C)[C@H](CC[C@@H]4[C@@]5(C)CC[C@H](O)C(C)(C)[C@@H]5CC[C@]43C)[C@@H]12 | 159 | 28.6 µM | – | –
8 | 20 nM | C=C(C)[C@@H]1CC[C@]2(COC(=O)CC(C)(C)C(=O)O)CC[C@]3(C)[C@H](CC[C@@H]4[C@@]5(C)CC[C@H](OC(=O)CC(C)(C)C(=O)O)C(C)(C)[C@@H]5CC[C@]43C)[C@@H]12 | 1680 | 33.6 µM | – | –
9 | 400 nM | C=C(C)[C@@H]1CC[C@]2(COC(=O)CC(C)(C)C(=O)O)CC[C@]3(C)[C@H](CC[C@@H]4[C@@]5(C)CC[C@H](OC(=O)C(C)(C)CC(=O)O)C(C)(C)[C@@H]5CC[C@]43C)[C@@H]12 | 96.5 | 38.6 µM | – | –
